Results as given in patent US8580794B2 (AbbVie Inc., priority 2009, dated 2013).
Where two headings read alike, the source gives them in different places.

Key:
[1] = system: RS4;11 cells; test: RS4;11 Cell Viability Assay (CellTiter Glo); type: cell-based; conditions: Homo sapiens, RS4-11, 48 h, 50,000 cells per well, 10% human serum;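 also: RS4,11 acute lymphoblastic leukemia cells, viability as percent of untreated control cells, EC50 for loss of viable cells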
Procedure: The acute lymphoblastic leukemia (ALL) cell line RS4;11 was used as the primary human cell line to assess the cellular activity of Bcl-2 selective agents in vitro and their efficacy in vivo.
Cell cytotoxicity EC50 values were assessed using CellTiter Glo (Promega) according to the manufacturer's recommendations. The EC50 values were determined as a percentage of viable cells following treatment compared to the untreated control cells.

[2] = target: GST-Bc1-2 (Homo sapiens, UniProt P10415); test: Time Resolved-Fluorescence Resonance Energy Transfer (TR-FRET) Bcl-2 binding assay with F-Bak peptide probe
GST-Bc1-2, sequence (P10415 whole entry): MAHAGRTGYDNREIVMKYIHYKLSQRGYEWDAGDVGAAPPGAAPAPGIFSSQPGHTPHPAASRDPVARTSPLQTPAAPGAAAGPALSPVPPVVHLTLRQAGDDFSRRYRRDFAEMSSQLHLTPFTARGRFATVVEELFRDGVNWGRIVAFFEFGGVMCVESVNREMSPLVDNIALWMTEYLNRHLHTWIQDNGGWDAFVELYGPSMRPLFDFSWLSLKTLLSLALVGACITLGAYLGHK

[3] = GST-Bcl-2 1 nM, F-Bak probe 100 nM, Tb-anti-GST 1 nM, '<' = below limit of detection, read-out: TR-FRET Bcl-2 Binding Ki

SMILES: CC1(C)CCC(CN2CCN(c3ccc(C(=O)NS(=O)(=O)c4ccc(OC[C@H]5CC[C@H](O)CC5)c([N+](=O)[O-])c4)c(Oc4cnc5[nH]ccc5c4)c3)CC2)=C(c2ccc(Cl)cc2)C1 [Example 196, Trans-4-(4-{[2-(4-chlorophenyl)-4,4-dimethylcyclohex-1-en-1-yl]methyl}piperazin-1-yl)-N-({4-[(4-hydroxycyclohexyl)methoxy]-3-nitrophenyl}sulfonyl)-2-(1H-pyrrolo[2,3-b]pyridin-5-yloxy)benzamide]
- EC50 [1]: 1.72 nM

SMILES: CC1(C)CCC(CN2CCN(c3ccc(C(=O)NS(=O)(=O)c4ccc(NC5CCC(N6CCC(F)(F)C6)CC5)c([N+](=O)[O-])c4)c(Oc4cnc5[nH]ccc5c4)c3)CC2)=C(c2ccc(Cl)cc2)C1 (stereo not drawn) [Example 346, 4-(4-{[2-(4-chlorophenyl)-4,4-dimethylcyclohex-1-en-1-yl]methyl}piperazin-1-yl)-N-[(4-{[4-(3,3-difluoropyrrolidin-1-yl)cyclohexyl]amino}-3-nitrophenyl)sulfonyl]-2-(1H-pyrrolo[2,3-b]pyridin-5-yloxy)benzamide]
- Ki [2, 3]: 0.042 nM

SMILES: CC1(C)CCC(CN2CCN(c3ccc(C(=O)NS(=O)(=O)c4ccc(NC5CCC(NC6CC6(F)F)CC5)c([N+](=O)[O-])c4)c(Oc4cnc5[nH]ccc5c4)c3)CC2)=C(c2ccc(Cl)cc2)C1 (stereo not drawn) [Example 349, 4-(4-{[2-(4-chlorophenyl)-4,4-dimethylcyclohex-1-en-1-yl]methyl}piperazin-1-yl)-N-{[4-({4-[(2,2-difluorocyclopropyl)amino]cyclohexyl}amino)-3-nitrophenyl]sulfonyl}-2-(1H-pyrrolo[2,3-b]pyridin-5-yloxy)benzamide]
- Ki [2, 3]: 0.023 nM

SMILES: CC1(C)CCC(CN2CCN(c3ccc(C(=O)NS(=O)(=O)c4ccc(OCC5CCC6(CC5)COC6)c([N+](=O)[O-])c4)c(Oc4cnc5[nH]ccc5c4)c3)CC2)=C(c2ccc(Cl)cc2)C1 [Example 351, 4-(4-{[2-(4-chlorophenyl)-4,4-dimethylcyclohex-1-en-1-yl]methyl}piperazin-1-yl)-N-{[3-nitro-4-(2-oxaspiro[3.5]non-7-ylmethoxy)phenyl]sulfonyl}-2-(1H-pyrrolo[2,3-b]pyridin-5-yloxy)benzamide]
- Ki [2, 3]: < 0.01 nM

SMILES: O=C(NS(=O)(=O)c1ccc(NCC2CCOCC2)c([N+](=O)[O-])c1)c1ccc(N2CCN(CC3=C(c4ccc(Cl)cc4)CCC(CF)(CF)C3)CC2)cc1Oc1cnc2[nH]ccc2c1 [Example 353, 4-(4-{[2-(4-chlorophenyl)-5,5-bis(fluoromethyl)cyclohex-1-en-1-yl]methyl}piperazin-1-yl)-N-({3-nitro-4-[(tetrahydro-2H-pyran-4-ylmethyl)amino]phenyl}sulfonyl)-2-(1H-pyrrolo[2,3-b]pyridin-5-yloxy)benzamide]
- Ki [2, 3]: < 0.01 nM

SMILES: CC1(C)CCC(CN2CCN(c3ccc(C(=O)NS(=O)(=O)c4ccc(OCC5CN(C6CC6)CCO5)c([N+](=O)[O-])c4)c(Oc4cnc5[nH]ccc5c4)c3)CC2)=C(c2ccc(Cl)cc2)C1 (stereo not drawn) [Example 354, 4-(4-{[2-(4-chlorophenyl)-4,4-dimethylcyclohex-1-en-1-yl]methyl}piperazin-1-yl)-N-({4-[(4-cyclopropylmorpholin-2-yl)methoxy]-3-nitrophenyl}sulfonyl)-2-(1H-pyrrolo[2,3-b]pyridin-5-yloxy)benzamide]
- Ki [2, 3]: 0.01 nM

SMILES: CC1(C)CCC(CN2CCN(c3ccc(C(=O)NS(=O)(=O)c4ccc(OCC5(F)CCN(C6COC6)CC5)c(C#N)c4)c(Oc4cnc5[nH]ccc5c4)c3)CC2)=C(c2ccc(Cl)cc2)C1 [Example 357, 4-(4-{[2-(4-chlorophenyl)-4,4-dimethylcyclohex-1-en-1-yl]methyl}piperazin-1-yl)-N-[(3-cyano-4-{[4-fluoro-1-(oxetan-3-yl)piperidin-4-yl]methoxy}phenyl)sulfonyl]-2-(1H-pyrrolo[2,3-b]pyridin-5-yloxy)benzamide]
- Ki [2, 3]: < 0.01 nM

SMILES: COCC1(C)CCC(c2ccc(Cl)cc2)=C(CN2CCN(c3ccc(C(=O)NS(=O)(=O)c4ccc(NCC5CCOCC5)c([N+](=O)[O-])c4)c(Oc4cnc5[nH]ccc5c4)c3)CC2)C1 (stereo not drawn) [Example 360, 4-(4-{[2-(4-chlorophenyl)-5-(methoxymethyl)-5-methylcyclohex-1-en-1-yl]methyl}piperazin-1-yl)-N-({3-nitro-4-[(tetrahydro-2H-pyran-4-ylmethyl)amino]phenyl}sulfonyl)-2-(1H-pyrrolo[2,3-b]pyridin-5-yloxy)benzamide]
- Ki [2, 3]: < 0.01 nM

SMILES: CC1(C)CCC(CN2CCN(c3ccc(C(=O)NS(=O)(=O)c4ccc(NC[C@H]5CN(C6COC6)CCO5)c([N+](=O)[O-])c4)c(Oc4cnc5[nH]ccc5c4)c3)CC2)=C(c2ccc(Cl)cc2)C1 [Example 361, 4-(4-{[2-(4-chlorophenyl)-4,4-dimethylcyclohex-1-en-1-yl]methyl}piperazin-1-yl)-N-{[3-nitro-4-({[(2S)-4-(oxetan-3-yl)morpholin-2-yl]methyl}amino)phenyl]sulfonyl}-2-(1H-pyrrolo[2,3-b]pyridin-5-yloxy)benzamide]
- Ki [2, 3]: < 0.01 nM

SMILES: CC1(C)CCC(CN2CCN(c3ccc(C(=O)NS(=O)(=O)c4ccc(OCC5(F)CCC(N(CCC#N)C6CC6)CC5)c([N+](=O)[O-])c4)c(Oc4cnc5[nH]ccc5c4)c3)CC2)=C(c2ccc(Cl)cc2)C1 (stereo not drawn) [Example 363, 4-(4-{[2-(4-chlorophenyl)-4,4-dimethylcyclohex-1-en-1-yl]methyl}piperazin-1-yl)-N-{[4-({4-[(2-cyanoethyl)(cyclopropyl)amino]-1-fluorocyclohexyl}methoxy)-3-nitrophenyl]sulfonyl}-2-(1H-pyrrolo[2,3-b]pyridin-5-yloxy)benzamide]
- Ki [2, 3]: 0.017 nM

SMILES: CC1(C)CCC(CN2CCN(c3ccc(C(=O)NS(=O)(=O)c4cnc(NCC5CCOCC5)c([N+](=O)[O-])c4)c(Oc4cnc5[nH]ccc5c4)c3)CC2)=C(c2ccc(Cl)cc2)C1 [Example 364, 4-(4-{[2-(4-chlorophenyl)-4,4-dimethylcyclohex-1-en-1-yl]methyl}piperazin-1-yl)-N-({5-nitro-6-[(tetrahydro-2H-pyran-4-ylmethyl)amino]pyridin-3-yl}sulfonyl)-2-(1H-pyrrolo[2,3-b]pyridin-5-yloxy)benzamide]
- Ki [2, 3]: < 0.01 nM

SMILES: CC1(C)CCC(CN2CCN(c3ccc(C(=O)NS(=O)(=O)c4ccc(NCC5CCC6(CC5)COC6)c([N+](=O)[O-])c4)c(Oc4cnc5[nH]ccc5c4)c3)CC2)=C(c2ccc(Cl)cc2)C1 [Example 365, 4-(4-{[2-(4-chlorophenyl)-4,4-dimethylcyclohex-1-en-1-yl]methyl}piperazin-1-yl)-N-({3-nitro-4-[(2-oxaspiro[3.5]non-7-ylmethyl)amino]phenyl}sulfonyl)-2-(1H-pyrrolo[2,3-b]pyridin-5-yloxy)benzamide]
- Ki [2, 3]: < 0.01 nM

SMILES: CC1(C)CCC(CN2CCN(c3ccc(C(=O)NS(=O)(=O)c4ccc(NCC5CCC(C)(C#N)CC5)c([N+](=O)[O-])c4)c(Oc4cnc5[nH]ccc5c4)c3)CC2)=C(c2ccc(Cl)cc2)C1 (stereo not drawn) [Example 366, 4-(4-{[2-(4-chlorophenyl)-4,4-dimethylcyclohex-1-en-1-yl]methyl}piperazin-1-yl)-N-[(4-{[(4-cyano-4-methylcyclohexyl)methyl]amino}-3-nitrophenyl)sulfonyl]-2-(1H-pyrrolo[2,3-b]pyridin-5-yloxy)benzamide]
- Ki [2, 3]: 0.024 nM

SMILES: CC1(C)CCC(CN2CCN(c3ccc(C(=O)NS(=O)(=O)c4cnc5c(c4)nnn5CC4CCOCC4)c(Oc4cnc5[nH]ccc5c4)c3)CC2)=C(c2ccc(Cl)cc2)C1 [Example 370, 4-(4-{[2-(4-chlorophenyl)-4,4-dimethylcyclohex-1-en-1-yl]methyl}piperazin-1-yl)-2-(1H-pyrrolo[2,3-b]pyridin-5-yloxy)-N-{[3-(tetrahydro-2H-pyran-4-ylmethyl)-3H-[1,2,3]triazolo[4,5-b]pyridin-6-yl]sulfonyl}benzamide]
- Ki [2, 3]: 0.285 nM

SMILES: CC1(C)CCC(CN2CCN(c3ccc(C(=O)NS(=O)(=O)c4ccc(NC(=O)N5CCOCC5)c([N+](=O)[O-])c4)c(Oc4cnc5[nH]ccc5c4)c3)CC2)=C(c2ccc(Cl)cc2)C1 [Example 373, N-(4-{[4-(4-{[2-(4-chlorophenyl)-4,4-dimethylcyclohex-1-en-1-yl]methyl}piperazin-1-yl)-2-(1H-pyrrolo[2,3-b]pyridin-5-yloxy)benzoyl]sulfamoyl}-2-nitrophenyl)morpholine-4-carboxamide]
- Ki ([2]; TR-FRET Bcl-2 Binding Ki): < 0.001 nM

SMILES: COCC1CCC(CNc2ccc(S(=O)(=O)NC(=O)c3ccc(N4CCN(CC5=C(c6ccc(Cl)cc6)CC(C)(C)CC5)CC4)cc3Oc3cnc4[nH]ccc4c3)cc2[N+](=O)[O-])CC1 (stereo not drawn) [Example 374, 4-(4-{[2-(4-chlorophenyl)-4,4-dimethylcyclohex-1-en-1-yl]methyl}piperazin-1-yl)-N-{[4-({[4-(methoxymethyl)cyclohexyl]methyl}amino)-3-nitrophenyl]sulfonyl}-2-(1H-pyrrolo[2,3-b]pyridin-5-yloxy)benzamide]
- Ki [2, 3]: < 0.001 nM

SMILES: CC1(C)CCC(CN2CCN(c3ccc(C(=O)NS(=O)(=O)c4cnc(OCC5CCN(c6nccs6)CC5)c(Cl)c4)c(Oc4cnc5[nH]ccc5c4)c3)CC2)=C(c2ccc(Cl)cc2)C1 [Example 375, 4-(4-{[2-(4-chlorophenyl)-4,4-dimethylcyclohex-1-en-1-yl]methyl}piperazin-1-yl)-N-[(5-chloro-6-{[1-(1,3-thiazol-2-yl)piperidin-4-yl]methoxy}pyridin-3-yl)sulfonyl]-2-(1H-pyrrolo[2,3-b]pyridin-5-yloxy)benzamide]
- Ki [2, 3]: 0.11 nM

SMILES: COC1(C)CCC(c2ccc(Cl)cc2)=C(CN2CCN(c3ccc(C(=O)NS(=O)(=O)c4ccc(NCC5CCOCC5)c([N+](=O)[O-])c4)c(Oc4cnc5[nH]ccc5c4)c3)CC2)C1 (stereo not drawn) [Example 378, 4-(4-{[2-(4-chlorophenyl)-5-methoxy-5-methylcyclohex-1-en-1-yl]methyl}piperazin-1-yl)-N-({3-nitro-4-[(tetrahydro-2H-pyran-4-ylmethyl)amino]phenyl}sulfonyl)-2-(1H-pyrrolo[2,3-b]pyridin-5-yloxy)benzamide]
- Ki [2, 3]: < 0.001 nM
